Measurements as given in patent EP0908457B1, “3-(1,2-benzisothiazol- and isoxazol-5-Y1)-2,4(1H,3H)-pyrimidinedione or thione and 3-(1,2-benzisothiazol- and isoxazol-5-y1)-4(3H)-pyrimidinone or thione herbicidal agents” (BASF AKTIENGESELLSCHAFT, priority 1997, dated 1999).

Assays:
[1] = tested on: Cyperus serotinus, Rottb.; test: Postemergence weed control under flooded paddy conditions, CYPSE (Flatsedge); format: in vivo; details: rated three to four weeks after treatment
[2] = tested on: Monochoria vaginalis, Presl.; test: Preemergence weed control under flooded paddy conditions, MOOVA (Monochoria); format: in vivo; details: preemergence, flooded paddy, rated three to four weeks after treatment; note: meaning of each grade not given here
[3] = tested on: Cyperus iria; test: Postemergence weed control under flooded paddy conditions, CYPIR (Rice Flatsedge); format: in vivo; details: rated three to four weeks after treatment
[4] = tested on: Oryza sativa, (L.) Tebonnet; test: Rice tolerance to post-transplant applications under flooded paddy conditions (Example 187), ORYSAT (Rice, Tebonnet); details: rated three to four weeks after treatment; for herbicidal effect rating ORYSAT: meaning of each grade not given here
[5] = tested on: Cyperus iria; test: Preemergence weed control under flooded paddy conditions, CYPIR (Rice Flatsedge); format: in vivo; details: preemergence, flooded paddy, rated three to four weeks after treatment; note: meaning of each grade not given here
[6] = tested on: Sagittaria pygmaea, L.; test: Postemergence weed control under flooded paddy conditions, SAGPY (Arrowhead (Pygmaea)); format: in vivo; details: rated three to four weeks after treatment
[7] = tested on: Echinochloa oryzoides (Ard.) Fritsch.; test: Postemergence weed control under flooded paddy conditions, ECHORC (Watergrass (Calif.)); format: in vivo; details: rated three to four weeks after treatment
[8] = tested on: Cyperus serotinus, Rottb.; test: Preemergence weed control under flooded paddy conditions, CYPSE (Flatsedge); format: in vivo; details: preemergence, rated three to four weeks after treatment; note: meaning of each grade not given here
[9] = tested on: Echinochloa oryzoides (Ard.) Fritsch.; test: Preemergence weed control under flooded paddy conditions, ECHORC (Watergrass (Calif.)); format: in vivo; details: preemergence, flooded paddy, rated three to four weeks after treatment; note: meaning of each grade not given here
[10] = tested on: Oryza sativa, (L.) Tebonnet; test: Rice tolerance to post-transplant applications under flooded paddy conditions (Example 188), ORYSAT (Rice, Tebonnet); details: rated three to four weeks after treatment
[11] = tested on: Sagittaria pygmaea, L.; test: Preemergence weed control under flooded paddy conditions, SAGPY (Arrowhead (Pygmaea)); format: in vivo; details: preemergence, flooded paddy, rated three to four weeks after treatment; note: meaning of each grade not given here
[12] = tested on: Monochoria vaginalis, Presl.; test: Postemergence weed control under flooded paddy conditions, MOOVA (Monochoria); format: in vivo; details: rated three to four weeks after treatment

Question: Which results are given for `Cn1c(C(F)(F)F)cc(=O)n(-c2ccc3snc(-c4ccccc4)c3c2)c1=O` [Example 4, 1-Methyl-3-(3-phenyl-1,2-benzisothiazol-5-yl)-6-(trifluoromethyl)-2,4(1H,3H)-pyrimidinedione]?
Answer: herbicidal effect rating, CYPSE ([1]; Rate 0.0313 kg/ha): 2.0; herbicidal effect rating, CYPSE ([1]; Rate 0.0625 kg/ha): 4.0; herbicidal effect rating, CYPSE ([1]; Rate 0.1250 kg/ha): 7.0; herbicidal effect rating, CYPSE ([1]; Rate 0.2500 kg/ha): 7.0; herbicidal effect rating, CYPSE ([1]; Rate 0.5000 kg/ha): 9.0; herbicidal effect rating, MOOVA ([2]; 0.0313 kg/ha): 9.0; herbicidal effect rating, MOOVA ([2]; 0.0625 kg/ha): 9.0; herbicidal effect rating, MOOVA ([2]; 0.1250 kg/ha): 9.0; herbicidal effect rating, MOOVA ([2]; 0.2500 kg/ha): 9.0; herbicidal effect rating, MOOVA ([2]; 0.5000 kg/ha): 9.0; herbicidal effect rating, CYPIR ([3]; Rate 0.0313 kg/ha): 8.0; herbicidal effect rating, CYPIR ([3]; Rate 0.0625 kg/ha): 9.0; herbicidal effect rating, CYPIR ([3]; Rate 0.1250 kg/ha): 9.0; herbicidal effect rating, CYPIR ([3]; Rate 0.2500 kg/ha): 9.0; herbicidal effect rating, CYPIR ([3]; Rate 0.5000 kg/ha): 9.0; herbicidal effect rating, ORYSAT (rice tolerance) ([4]; 0.0313 kg/ha): 4.0; herbicidal effect rating, ORYSAT (rice tolerance) ([4]; 0.0625 kg/ha): 7.0; herbicidal effect rating, ORYSAT (rice tolerance) ([4]; 0.1250 kg/ha): 7.0; herbicidal effect rating, ORYSAT (rice tolerance) ([4]; 0.2500 kg/ha): 8.0; herbicidal effect rating, ORYSAT (rice tolerance) ([4]; 0.5000 kg/ha): 8.0; herbicidal effect rating, CYPIR ([5]; 0.0313 kg/ha): 9.0; herbicidal effect rating, CYPIR ([5]; 0.0625 kg/ha): 9.0; herbicidal effect rating, CYPIR ([5]; 0.1250 kg/ha): 9.0; herbicidal effect rating, CYPIR ([5]; 0.2500 kg/ha): 9.0; herbicidal effect rating, CYPIR ([5]; 0.5000 kg/ha): 9.0; herbicidal effect rating, SAGPY ([6]; Rate 0.0313 kg/ha): 3.0; herbicidal effect rating, SAGPY ([6]; Rate 0.0625 kg/ha): 2.0; herbicidal effect rating, SAGPY ([6]; Rate 0.1250 kg/ha): 6.0; herbicidal effect rating, SAGPY ([6]; Rate 0.2500 kg/ha): 9.0; herbicidal effect rating, SAGPY ([6]; Rate 0.5000 kg/ha): 9.0; herbicidal effect rating, ECHORC ([7]; Rate 0.0313 kg/ha): 7.0; herbicidal effect rating, ECHORC ([7]; Rate 0.0625 kg/ha): 9.0; herbicidal effect rating, ECHORC ([7]; Rate 0.1250 kg/ha): 9.0; herbicidal effect rating, ECHORC ([7]; Rate 0.2500 kg/ha): 9.0; herbicidal effect rating, ECHORC ([7]; Rate 0.5000 kg/ha): 9.0; herbicidal effect rating, CYPSE ([8]; 0.0625 kg/ha): 2.0; herbicidal effect rating, CYPSE ([8]; 0.1250 kg/ha): 9.0; herbicidal effect rating, CYPSE ([8]; 0.2500 kg/ha): 9.0; herbicidal effect rating, CYPSE ([8]; 0.5000 kg/ha): 9.0; herbicidal effect rating, ECHORC ([9]; 0.0313 kg/ha): 9.0; herbicidal effect rating, ECHORC ([9]; 0.0625 kg/ha): 9.0; herbicidal effect rating, ECHORC ([9]; 0.1250 kg/ha): 9.0; herbicidal effect rating, ECHORC ([9]; 0.2500 kg/ha): 9.0; herbicidal effect rating, ECHORC ([9]; 0.5000 kg/ha): 9.0; herbicidal effect rating, ORYSAT (rice tolerance) ([10]; Rate 0.0313 kg/ha): 3.0; herbicidal effect rating, ORYSAT (rice tolerance) ([10]; Rate 0.0625 kg/ha): 4.0; herbicidal effect rating, ORYSAT (rice tolerance) ([10]; Rate 0.1250 kg/ha): 7.0; herbicidal effect rating, ORYSAT (rice tolerance) ([10]; Rate 0.2500 kg/ha): 8.0; herbicidal effect rating, ORYSAT (rice tolerance) ([10]; Rate 0.5000 kg/ha): 8.0; herbicidal effect rating, SAGPY ([11]; 0.0313 kg/ha): 2.0; herbicidal effect rating, SAGPY ([11]; 0.0625 kg/ha): 2.0; herbicidal effect rating, SAGPY ([11]; 0.1250 kg/ha): 6.0; herbicidal effect rating, SAGPY ([11]; 0.2500 kg/ha): 9.0; herbicidal effect rating, SAGPY ([11]; 0.5000 kg/ha): 9.0; herbicidal effect rating, MOOVA ([12]; Rate 0.0313 kg/ha): 8.0; herbicidal effect rating, MOOVA ([12]; Rate 0.0625 kg/ha): 9.0; herbicidal effect rating, MOOVA ([12]; Rate 0.1250 kg/ha): 9.0; herbicidal effect rating, MOOVA ([12]; Rate 0.2500 kg/ha): 9.0; herbicidal effect rating, MOOVA ([12]; Rate 0.5000 kg/ha): 9.0

Question: How did the “herbicidal effect rating, CYPSE” value ([1]; Rate 0.0320 kg/ha) turn out when `COCc1nsc2cc(F)c(-n3c(=O)cc(C(F)(F)F)n(C)c3=O)cc12` [Example 378, 2,4(1H,3H)-Pyrimidinedione, 3-[6-fluoro-3-(methoxymethyl)-1,2-benzisothiazol-5-yl]-1-methyl-6-(trifluoromethyl)-] was run?
Answer: Its value is 9.0.

Question: What about the “herbicidal effect rating, CYPSE” value ([1]; Rate 0.0620 kg/ha) of the same molecule?
Answer: The value was 9.0.

Question: What about the “herbicidal effect rating, CYPSE” value ([1]; Rate 0.1250 kg/ha) of the same molecule?
Answer: Its value is 9.0.

Question: What about the “herbicidal effect rating, MOOVA” value ([2]; Rate 0.0320 kg/ha) of the same molecule?
Answer: Its value is 9.0.

Question: What about the “herbicidal effect rating, MOOVA” value ([2]; Rate 0.0620 kg/ha) of the same molecule?
Answer: The value was 9.0.

Question: And the “herbicidal effect rating, MOOVA” value ([2]; Rate 0.1250 kg/ha)?
Answer: Its value is 9.0.

Question: And the “herbicidal effect rating, MOOVA” value ([2]; Rate 0.2500 kg/ha)?
Answer: Its value is 9.0.

Question: And the “herbicidal effect rating, CYPIR” value ([3]; Rate 0.0320 kg/ha)?
Answer: The value was 9.0.

Question: And the “herbicidal effect rating, CYPIR” value ([3]; Rate 0.0620 kg/ha)?
Answer: The value was 9.0.

Question: What about the “herbicidal effect rating, CYPIR” value ([3]; Rate 0.1250 kg/ha) of the same molecule?
Answer: The value was 9.0.

Question: And the “herbicidal effect rating ORYSAT” value ([4]; Rate 0.0320 kg/ha)?
Answer: The value was 9.0.

Question: What about the “herbicidal effect rating ORYSAT” value ([4]; Rate 0.0620 kg/ha) of the same molecule?
Answer: The value was 9.0.

Question: What about the “herbicidal effect rating ORYSAT” value ([4]; Rate 0.1250 kg/ha) of the same molecule?
Answer: The value was 9.0.

Question: What about the “herbicidal effect rating ORYSAT” value ([4]; Rate 0.2500 kg/ha) of the same molecule?
Answer: Its value is 9.0.

Question: And the “herbicidal effect rating, CYPIR” value ([5]; Rate 0.0320 kg/ha)?
Answer: The value was 9.0.

Question: And the “herbicidal effect rating, CYPIR” value ([5]; Rate 0.0620 kg/ha)?
Answer: Its value is 9.0.

Question: What about the “herbicidal effect rating, CYPIR” value ([5]; Rate 0.1250 kg/ha) of the same molecule?
Answer: The value was 9.0.

Question: What about the “herbicidal effect rating, CYPIR” value ([5]; Rate 0.2500 kg/ha) of the same molecule?
Answer: Its value is 9.0.

Question: What about the “herbicidal effect rating, SAGPY” value ([6]; Rate 0.0320 kg/ha) of the same molecule?
Answer: The value was 9.0.

Question: And the “herbicidal effect rating, SAGPY” value ([6]; Rate 0.0620 kg/ha)?
Answer: Its value is 9.0.

Question: What about the “herbicidal effect rating, SAGPY” value ([6]; Rate 0.1250 kg/ha) of the same molecule?
Answer: The value was 9.0.

Question: What about the “herbicidal effect rating, ECHORC” value ([7]; Rate 0.0320 kg/ha) of the same molecule?
Answer: Its value is 9.0.

Question: What about the “herbicidal effect rating, ECHORC” value ([7]; Rate 0.0620 kg/ha) of the same molecule?
Answer: The value was 9.0.

Question: And the “herbicidal effect rating, ECHORC” value ([7]; Rate 0.1250 kg/ha)?
Answer: The value was 9.0.

Question: And the “herbicidal effect rating, CYPSE” value ([8]; Rate 0.0320 kg/ha)?
Answer: The value was 9.0.

Question: And the “herbicidal effect rating, CYPSE” value ([8]; Rate 0.0620 kg/ha)?
Answer: Its value is 9.0.

Question: What about the “herbicidal effect rating, CYPSE” value ([8]; Rate 0.1250 kg/ha) of the same molecule?
Answer: The value was 9.0.

Question: What about the “herbicidal effect rating, CYPSE” value ([8]; Rate 0.2500 kg/ha) of the same molecule?
Answer: The value was 9.0.

Question: And the “herbicidal effect rating, ECHORC” value ([9]; Rate 0.0320 kg/ha)?
Answer: Its value is 9.0.

Question: And the “herbicidal effect rating, ECHORC” value ([9]; Rate 0.0620 kg/ha)?
Answer: The value was 9.0.

Question: And the “herbicidal effect rating, ECHORC” value ([9]; Rate 0.1250 kg/ha)?
Answer: Its value is 9.0.

Question: And the “herbicidal effect rating, ECHORC” value ([9]; Rate 0.2500 kg/ha)?
Answer: Its value is 9.0.

Question: What about the “herbicidal effect rating, ORYSAT (rice tolerance)” value (shortened to “herbicidal effect rating, ORYSAT”) ([10]; Rate 0.0320 kg/ha) of the same molecule?
Answer: Its value is 8.0.

Question: And the “herbicidal effect rating, ORYSAT” value ([10]; Rate 0.0620 kg/ha)?
Answer: Its value is 8.0.

Question: What about the “herbicidal effect rating, ORYSAT” value ([10]; Rate 0.1250 kg/ha) of the same molecule?
Answer: Its value is 9.0.

Question: What about the “herbicidal effect rating, SAGPY” value ([11]; Rate 0.0320 kg/ha) of the same molecule?
Answer: Its value is 9.0.

Question: What about the “herbicidal effect rating, SAGPY” value ([11]; Rate 0.0620 kg/ha) of the same molecule?
Answer: The value was 9.0.

Question: And the “herbicidal effect rating, SAGPY” value ([11]; Rate 0.1250 kg/ha)?
Answer: Its value is 9.0.

Question: What about the “herbicidal effect rating, SAGPY” value ([11]; Rate 0.2500 kg/ha) of the same molecule?
Answer: The value was 9.0.

Question: What about the “herbicidal effect rating, MOOVA” value ([12]; Rate 0.0320 kg/ha) of the same molecule?
Answer: Its value is 9.0.

Question: And the “herbicidal effect rating, MOOVA” value ([12]; Rate 0.0620 kg/ha)?
Answer: The value was 9.0.

Question: And the “herbicidal effect rating, MOOVA” value ([12]; Rate 0.1250 kg/ha)?
Answer: The value was 9.0.
